Laboratory results taken from patent US20070128217A1 (priority 2003, published 2007).

Key:
[1] = system: antibodies in sera from SARS patients (sera 1a, 1b, 2, 6, 37, 62, London, SARS-yellow, SARS-green); format: binding, human; parameters: Binding of serum 6 to linear peptides of protein X1 of SARS-CoV Urbani / Binding of serum 37 to linear peptides of protein X1 of SARS-CoV Urbani / Binding of serum 6 to looped/cyclic peptide (PEPSCAN-ELISA) / Binding of serum 37 to looped/cyclic peptide (PEPSCAN-ELISA) / Binding of serum 37 to looped/cyclic peptides of protein X1 of SARS-CoV Urbani / Binding of serum 6 to linear peptides of protein X2 / Binding of serum 37 to linear peptides of protein X2 / Binding of serum 37 to looped/cyclic peptides of protein X2 of SARS-CoV Urbani / Binding of serum 6 to linear peptides of protein M of SARS-CoV Urbani / Binding of serum 37 to linear peptides of protein M of SARS-CoV Urbani / Binding of serum 6 to looped/cyclic peptides of protein M of SARS-CoV Urbani / Binding of serum 37 to looped/cyclic peptides of protein M of SARS-CoV Urbani / Binding of serum 6 to linear peptides of protein X3 of SARS-CoV Urbani / Binding of serum 37 to linear peptides of protein X3 of SARS-CoV Urbani / Binding of serum 37 to looped/cyclic peptides of protein X3 of SARS-CoV Urbani / Binding of serum 6 to linear peptides of protein X4 of SARS-CoV Urbani / Binding of serum 37 to linear peptides of protein X4 of SARS-CoV Urbani / Binding of serum 37 to looped/cyclic peptides of protein X4 of SARS-CoV Urbani / Binding of serum 6 to linear peptides of protein X5 of SARS-CoV Urbani / Binding of serum 37 to linear peptides of protein X5 of SARS-CoV Urbani / Binding of serum 37 to looped/cyclic peptides of protein X5 of SARS-CoV Urbani / Binding of serum 6 to linear peptides of protein N of SARS-CoV Urbani / Binding of serum 37 to linear peptides of protein N of SARS-CoV Urbani / Binding of serum 6 to linear peptide (PEPSCAN-ELISA) / Binding of serum 1a to looped/cyclic peptides of protein N of SARS-CoV Urbani / Binding of serum 1b to looped/cyclic peptides of protein N of SARS-CoV Urbani / Binding of serum 2 to looped/cyclic peptides of protein N of SARS-CoV Urbani / Binding of serum 6 to looped/cyclic peptides of protein N of SARS-CoV Urbani / Binding of serum 37 to looped/cyclic peptides of protein N of SARS-CoV Urbani / Binding of serum 62 to looped/cyclic peptides of protein N of SARS-CoV Urbani / Binding of serum London to looped/cyclic peptides of protein N of SARS-CoV Urbani / Binding of serum SARS-green to looped/cyclic peptides of protein N of SARS-CoV Urbani: unit not given here
[2] = system: control sera (pooled serum of ten healthy LUMC hospital workers; commercial negative donor pooled serum from the Dutch bloodbank); format: binding, human; parameters: Binding of Control serum LUMC to linear peptides / Binding of Control serum Blood-bank to linear peptides / Binding of Control serum LUMC to looped peptides / Binding of Control Serum Blood-Bank to Looped peptides / Binding of Control serum LUMC to linear peptides of the protein M of SARS-CoV Urbani / Binding of Control serum Blood-bank to linear peptides of the protein M of SARS-CoV Urbani / Binding of Control serum LUMC to looped peptides of the protein M of SARS-CoV Urbani / Binding of Control Serum Blood-Bank to Looped peptides of the protein M of SARS-CoV Urbani: unit not given here
[3] = system: rabbit serum obtained by immunizing a rabbit with the SARS-CoV strain Frankfurt 1; format: binding; parameters: Binding of a rabbit serum to linear peptides / Binding of a rabbit serum to looped peptides / Rabbit serum linear peptides / Rabbit serum looped peptides / Binding of a rabbit serum to linear peptides of protein N of SARS-CoV Urbani (Rabbit serum linear peptides) / Binding of a rabbit serum to looped/cyclic peptides of protein N of SARS-CoV Urbani (Rabbit serum looped peptides): unit not given here

## YALIYFLQCINACRI
[1]
  Binding of serum 1a to linear peptides of protein X1 of SARS-CoV Urbani: 0.7
  Binding of serum 1a to looped/cyclic peptide (PEPSCAN-ELISA): 0.2
  Binding of serum 1b to linear peptides of protein X1 of SARS-CoV Urbani: 0.5
  Binding of serum 1b to looped/cyclic peptide (PEPSCAN-ELISA): 0.1
  Binding of serum 2 to linear peptides of protein X1 of SARS-CoV Urbani: 0.5
  Binding of serum 2 to looped/cyclic peptide (PEPSCAN-ELISA): 0.1
  Binding of serum 6 to linear peptides of protein X1 of SARS-CoV Urbani: 0.4
  Binding of serum 6 to looped/cyclic peptide (PEPSCAN-ELISA): 0.0
  Binding of serum 37 to linear peptides of protein X1 of SARS-CoV Urbani: 0.6
  Binding of serum 37 to looped/cyclic peptide (PEPSCAN-ELISA): 0.1
  Binding of serum 62 to linear peptides of protein X1 of SARS-CoV Urbani: 0.6
  Binding of serum 62 to looped/cyclic peptide (PEPSCAN-ELISA): 0.2
  Binding of serum London to linear peptides of protein X1 of SARS-CoV Urbani: 0.3
  Binding of serum London to looped/cyclic peptide (PEPSCAN-ELISA): 0.1
  Binding of serum SARS-green to linear peptides of protein X1 of SARS-CoV Urbani: 0.2
  Binding of serum SARS-green to looped/cyclic peptide (PEPSCAN-ELISA): 0.2
  Binding of serum SARS-yellow to linear peptides of protein X1 of SARS-CoV Urbani: 0.4
  Binding of serum SARS-yellow to looped/cyclic peptide (PEPSCAN-ELISA): 0.0
[2]
  Binding of Control Serum Blood-Bank to Looped peptides: 0.3
  Binding of Control serum Blood-bank to linear peptides: 0.6
  Binding of Control serum LUMC to linear peptides: 0.6
  Binding of Control serum LUMC to looped peptides: 0.2
[3]
  Binding of a rabbit serum to linear peptides: 0.1
  Binding of a rabbit serum to looped peptides: 0.0

## YFLQCINACRIIMRC
[1]
  Binding of serum 1a to linear peptides of protein X1 of SARS-CoV Urbani: 0.7
  Binding of serum 1a to looped/cyclic peptide (PEPSCAN-ELISA): 0.6
  Binding of serum 1b to linear peptides of protein X1 of SARS-CoV Urbani: 0.6
  Binding of serum 1b to looped/cyclic peptide (PEPSCAN-ELISA): 0.4
  Binding of serum 2 to linear peptides of protein X1 of SARS-CoV Urbani: 0.5
  Binding of serum 2 to looped/cyclic peptide (PEPSCAN-ELISA): 0.4
  Binding of serum 6 to linear peptides of protein X1 of SARS-CoV Urbani: 0.5
  Binding of serum 6 to looped/cyclic peptide (PEPSCAN-ELISA): 1.6
  Binding of serum 37 to linear peptides of protein X1 of SARS-CoV Urbani: 0.6
  Binding of serum 37 to looped/cyclic peptide (PEPSCAN-ELISA): 0.5
  Binding of serum 62 to linear peptides of protein X1 of SARS-CoV Urbani: 0.6
  Binding of serum 62 to looped/cyclic peptide (PEPSCAN-ELISA): 0.6
  Binding of serum London to linear peptides of protein X1 of SARS-CoV Urbani: 0.2
  Binding of serum London to looped/cyclic peptide (PEPSCAN-ELISA): 1.6
  Binding of serum SARS-green to linear peptides of protein X1 of SARS-CoV Urbani: 0.3
  Binding of serum SARS-green to looped/cyclic peptide (PEPSCAN-ELISA): 0.2
  Binding of serum SARS-yellow to linear peptides of protein X1 of SARS-CoV Urbani: 0.3
  Binding of serum SARS-yellow to looped/cyclic peptide (PEPSCAN-ELISA): 0.6
[2]
  Binding of Control Serum Blood-Bank to Looped peptides: 0.6
  Binding of Control serum Blood-bank to linear peptides: 0.8
  Binding of Control serum LUMC to linear peptides: 0.7
  Binding of Control serum LUMC to looped peptides: 0.6
[3]
  Binding of a rabbit serum to linear peptides: 0.1
  Binding of a rabbit serum to looped peptides: 0.8

## YFTEVYYQLESTQIT
[1]
  Binding of serum 1a to linear peptides of protein X1 of SARS-CoV Urbani: 0.7
  Binding of serum 1a to looped/cyclic peptides of protein X1 of SARS-CoV Urbani: 0.5
  Binding of serum 1b to linear peptides of protein X1 of SARS-CoV Urbani: 0.6
  Binding of serum 1b to looped/cyclic peptides of protein X1 of SARS-CoV Urbani: 0.5
  Binding of serum 2 to linear peptides of protein X1 of SARS-CoV Urbani: 0.4
  Binding of serum 2 to looped/cyclic peptides of protein X1 of SARS-CoV Urbani: 0.3
  Binding of serum 6 to linear peptides of protein X1 of SARS-CoV Urbani: 0.4
  Binding of serum 6 to looped/cyclic peptides of protein X1 of SARS-CoV Urbani: 0.2
  Binding of serum 37 to linear peptides of protein X1 of SARS-CoV Urbani: 0.6
  Binding of serum 37 to looped/cyclic peptides of protein X1 of SARS-CoV Urbani: 0.4
  Binding of serum 62 to linear peptides of protein X1 of SARS-CoV Urbani: 0.6
  Binding of serum 62 to looped/cyclic peptides of protein X1 of SARS-CoV Urbani: 0.4
  Binding of serum London to linear peptides of protein X1 of SARS-CoV Urbani: 0.3
  Binding of serum London to looped/cyclic peptides of protein X1 of SARS-CoV Urbani: 0.2
  Binding of serum SARS-green to linear peptides of protein X1 of SARS-CoV Urbani: 0.3
  Binding of serum SARS-green to looped/cyclic peptides of protein X1 of SARS-CoV Urbani: 0.2
  Binding of serum SARS-yellow to linear peptides of protein X1 of SARS-CoV Urbani: 0.3
  Binding of serum SARS-yellow to looped/cyclic peptides of protein X1 of SARS-CoV Urbani: 0.3
[2]
  Binding of Control Serum Blood-Bank to Looped peptides: 0.4
  Binding of Control serum Blood-bank to linear peptides: 0.4
  Binding of Control serum LUMC to linear peptides: 0.4
  Binding of Control serum LUMC to looped peptides: 0.5
[3]
  Binding of a rabbit serum to linear peptides: 0.1
  Binding of a rabbit serum to looped peptides: 0.4

## YIIKLVFLWLLWPVT
[1]
  Binding of serum 1a to linear peptides of protein M of SARS-CoV Urbani: 0.8
  Binding of serum 1a to looped/cyclic peptides of protein M of SARS-CoV Urbani: 0.8
  Binding of serum 1b to linear peptides of protein M of SARS-CoV Urbani: 0.6
  Binding of serum 1b to looped/cyclic peptides of protein M of SARS-CoV Urbani: 0.8
  Binding of serum 2 to linear peptides of protein M of SARS-CoV Urbani: 0.9
  Binding of serum 2 to looped/cyclic peptides of protein M of SARS-CoV Urbani: 0.6
  Binding of serum 6 to linear peptides of protein M of SARS-CoV Urbani: 0.4
  Binding of serum 6 to looped/cyclic peptides of protein M of SARS-CoV Urbani: 0.8
  Binding of serum 37 to linear peptides of protein M of SARS-CoV Urbani: 0.7
  Binding of serum 37 to looped/cyclic peptides of protein M of SARS-CoV Urbani: 0.7
  Binding of serum 62 to linear peptides of protein M of SARS-CoV Urbani: 0.8
  Binding of serum 62 to looped/cyclic peptides of protein M of SARS-CoV Urbani: 0.7
  Binding of serum London to linear peptides of protein M of SARS-CoV Urbani: 0.3
  Binding of serum London to looped/cyclic peptides of protein M of SARS-CoV Urbani: 0.3
  Binding of serum SARS-green to linear peptides of protein M of SARS-CoV Urbani: 0.4
  Binding of serum SARS-green to looped/cyclic peptides of protein M of SARS-CoV Urbani: 0.4
  Binding of serum SARS-yellow to linear peptides of protein M of SARS-CoV Urbani: 0.1
  Binding of serum SARS-yellow to looped/cyclic peptides of protein M of SARS-CoV Urbani: 0.5
[2]
  Binding of Control Serum Blood-Bank to Looped peptides of the protein M of SARS-CoV Urbani: 0.8
  Binding of Control serum Blood-bank to linear peptides of the protein M of SARS-CoV Urbani: 0.8
  Binding of Control serum LUMC to linear peptides of the protein M of SARS-CoV Urbani: 0.5
  Binding of Control serum LUMC to looped peptides of the protein M of SARS-CoV Urbani: 0.8
[3]
  Rabbit serum linear peptides: 0.4
  Rabbit serum looped peptides: 0.2
